Assay results from paper PMC6161897, “The novel NADPH oxidase 4 selective inhibitor GLX7013114 counteracts human islet cell death in vitro” (PLoS ONE, 2018).

Key:
EndoC-βH1 cells = assay: EndoC-βH1 cell viability (PI, flow cytometry); assay type: cell-based, human; details: inhibitor 0.2, 0.5 or 1.0 μM; for cell death rates in EndoC-βH1 cells exposed to cytokines: 2-day incubation; for cell death rates in EndoC-βH1 cells exposed to high glucose + palmitate: 24h incubation
Procedure: […] Cells were then vital stained with 10 μg/ml propidium iodide (PI) for 10 min at 37°C. Free-floating cells and cells attached to the culture dish were washed separately with PBS, pooled and examined by flow cytometry using a FACSCalibur (BD Biosciences, Franklin Lakes, NJ, USA). In each experimental group 10000 cells were examined and gated by PI intensity and FSC signal. The percentage of dead cells was analyzed using […] software (BD Biosciences).

Nox2 = details: cited from earlier work
human islet cells [1] = assay: Human islet cell viability (PI/bisbenzimide ratio); assay type: cell-based; details: for human islet cell death, cytokines: IL-1β + IFN-γ 20 ng/ml each; for human islet cell death, cytokines / human islet cell death, high glucose + palmitate: 48h, ML171 2 μM, Phox-I2 2 μM, GLX7013114 1 μM; for human islet cell death, high glucose + palmitate: palmitate 1.5 mM + 20 mM glucose
Procedure: […] Cell viability was measured by staining cells with propidium iodide (20 μg/ml) and bisbenzimide (5 μg/ml) for 20 min at 37°C. The medium was replaced with PBS and the red and blue fluorescence was detected using a Nikon Eclipse fluorescence TE2000-U microscope (Nikon Instruments, Amsterdam, the Netherlands). The ratio of red to blue was taken as a relative measure of cell death (necrosis and late apoptosis) and was quantified using the Image J software (National Institutes of Health).

caspase 3 = assay: Cleaved caspase 3 immunofluorescence in human islets; assay type: cell-based; details: palmitate + high glucose 24h, same inhibitor concentrations as Fig 3
[2] = cited from earlier work
XO = details: cited from earlier work
human islet = details: cited from earlier work
DUOX1 = test system: DUOX1; set-up: method as in PMID 24053146; details: cited from earlier work
Nox4 = target: T1, Nox4 (Homo sapiens, UniProt Q9NPH5); details: cited from earlier work
T1 construct: host or cells: HEK 293 (CJ, constitutive) and T-REx-293 (tetracycline-inducible)
T1 sequence (Q9NPH5 1-578): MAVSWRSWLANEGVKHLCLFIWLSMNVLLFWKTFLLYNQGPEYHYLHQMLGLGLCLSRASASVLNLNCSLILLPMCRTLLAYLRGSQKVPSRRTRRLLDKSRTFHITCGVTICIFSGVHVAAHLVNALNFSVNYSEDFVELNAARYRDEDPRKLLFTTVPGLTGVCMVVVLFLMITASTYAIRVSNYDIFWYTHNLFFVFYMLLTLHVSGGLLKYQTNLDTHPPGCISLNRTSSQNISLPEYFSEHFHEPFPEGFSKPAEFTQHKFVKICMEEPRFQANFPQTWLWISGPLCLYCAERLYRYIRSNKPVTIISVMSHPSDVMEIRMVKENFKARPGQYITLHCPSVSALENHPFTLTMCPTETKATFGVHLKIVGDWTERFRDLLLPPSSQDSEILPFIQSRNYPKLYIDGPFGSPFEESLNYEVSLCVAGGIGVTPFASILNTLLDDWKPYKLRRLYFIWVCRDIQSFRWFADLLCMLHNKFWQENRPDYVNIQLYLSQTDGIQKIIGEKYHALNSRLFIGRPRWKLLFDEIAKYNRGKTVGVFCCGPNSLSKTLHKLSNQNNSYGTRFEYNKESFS
T1 sequence (P13498 2-195 partner limits assumed): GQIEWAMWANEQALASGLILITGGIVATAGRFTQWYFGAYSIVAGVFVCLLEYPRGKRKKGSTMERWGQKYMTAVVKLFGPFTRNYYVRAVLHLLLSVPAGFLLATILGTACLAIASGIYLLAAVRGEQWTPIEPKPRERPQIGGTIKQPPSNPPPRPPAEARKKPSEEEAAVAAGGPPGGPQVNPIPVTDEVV

human islet cells [3] = assay: ROS production in human islets (DCF fluorescence); assay type: cell-based; details: palmitate 1.5 mM + 20 mM glucose 24h, inhibitor during last 3h: DPI 0.2 μM, Dapsone 10 μM, GLX351322 10 μM, GLX481372 6 μM
Procedure: Human islets were incubated at control condition (cultured as described above) or with the addition of 1.5 mM palmitate (2% BSA) + 20 mM high glucose for 24h. During the last 3h of the 24h incubation, Nox inhibitors were added to the culture medium. During the last 40 min of the 24h incubation, human islets were loaded with the free radical indicator carboxy-H2DCFDA (5-(and-6)-carboxy-2',7'-dichlorodihydrofluorescein diacetate, 10 μM, Life Technologies, Stockholm, Sweden) at 37 °C. Hoechst stain (Life Technologies), which labels cell nuclei, was added during the last 10 min of this incubation. The islets were then washed and placed on the stage of an inverted confocal microscope (Nikon TE2000-U) and analyzed for green (DCF—dichlorofluorescein) and blue fluorescence (Hoechst). For each treatment group, 5 images (100–250 cells in each image) were taken at different areas. The intensity of green (DCF) and blue (Hoechst) signals was quantified using Image J software (National Institutes of Health, USA) and ratios between green and blue signals were calculated as a relative measure of oxidative stress.

all Nox enzymes = details: cited from earlier work

Row | Compound | cell death rates in EndoC-βH1 cells exposed to cytokines (EndoC-βH1 cells) | cell death rates in EndoC-βH1 cells exposed to high glucose + palmitate (EndoC-βH1 cells) | IC50 (Nox2) | human islet cell death, cytokines (human islet cells [1]) | human islet cell death, high glucose + palmitate (human islet cells [1]) | activation of caspase 3 in human islets (caspase 3) | XO inhibition (XO) | also measured
1 | O=[N+]([O-])c1cccc(C2Nc3ccc([N+](=O)[O-])cc3C3C=CCC32)c1 (stereo not shown) [Phox-I2] | failed to affect cell death rates | failed to affect cell death rates | 1 µM | failed to protect | partially protected | – | – | –
2 | CCOC(=O)c1c(NC(=O)CN2CCN(C(=O)c3ccco3)CC2)sc2c1CCC2 [GLX351322] | – | – | 40 µM | – | – | reduced activation of caspase 3 | Inactive | high-fat diet-induced glucose intolerance [2]: amelioration of high-fat diet-induced glucose intolerance; high glucose-induced inhibition of human islet insulin release and survival (human islet): protected against high glucose-induced inhibition of human islet insulin release and survival
3 | Nc1ccc(S(=O)(=O)c2ccc(N)cc2)cc1 [dapsone] | – | – | – | – | – | reduced activation of caspase 3 | – | inhibition of expression/activity of DUOX1 (DUOX1): μM concentrations; inhibition of expression/activity of Nox4 (Nox4): μM concentrations; human islet cell viability (PI and Bisbenzimide ratio) (human islet cells [1]; palmitate + high glucose 24h, inhibitor throughout: DPI 0.2 μM, Dapsone 10 μM, GLX351322 10 μM, GLX481372 6 μM): improved viability; human islet ROS production (DCF/DAPI ratio) (human islet cells [3]): reduced human islet ROS production
4 | c1ccc2c(c1)[I+]c1ccccc1-2 [DPI, diphenyleneiodoniumchloride] | – | – | […] | – | – | reduced activation of caspase 3 | Yes | IC50 values for all Nox enzymes (all Nox enzymes): nM range
5 | CC(=O)c1ccc2c(c1)Nc1ccccc1S2 [ML171] | failed to affect cell death rates | failed to affect cell death rates | […] | failed to reduce human islet cell death | failed to reduce human islet cell death | – | – | IC50 (XO; read-out: XO inhibition): 5.5 µM
